What was measured:
Format in all cases: cell-based, human
[1] = system: HCT-116 cells; experiment: Inhibition test for sphere-forming ability of cancer cells (Test Example 1), HCT-116; conditions: for IC50: HCT-116 cells, concentration for 50% inhibition of cell proliferation, read-out: IC50 (μmol/L) HCT-116 (Sphere IC50 value); for inhibitory effect on the sphere-forming ability of cancer cells: Test Example 1, summary in words, cell line not given (HCT-116, HT-29, FaDu tested)
How it was run: (§1)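 Cells were seeded at 350-800 cells/well in ultra-low-attachment plates in serum-free DMEM/F12 with 2% B27, 20 ng/mL EGF, 10 ng/mL bFGF and 5 μg/mL insulin. Compounds were added at 0.1% final DMSO for 4 days. Viable cells were read by CellTiter-Glo luminescence to give Sphere IC50 (μmol/L).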

[2] = system: HT-29 cells; experiment: Inhibition test for sphere-forming ability of cancer cells (Test Example 1), HT-29; conditions: concentration for 50% inhibition of cell proliferation, read-out: IC50 (μmol/L) HT-29 (Sphere IC50 value)
How it was run: as §1

[3] = system: FaDu cells; experiment: Inhibition test for sphere-forming ability of cancer cells (Test Example 1), FaDu; conditions: concentration for 50% inhibition of cell proliferation, read-out: IC50 (μmol/L) FaDu (Sphere IC50 value)
How it was run: as §1

[4] = system: HCT-116 cells; experiment: Inhibition test for sphere-forming ability of cancer cells in the presence of BSA (Test Example 2), HCT-116; conditions: HCT-116 cells, in the presence of 5% BSA, cultured 4 days
How it was run: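 Spheres grown 4 days in ultra-low-attachment wells, 350-800 cells/well, in DMEM/F12 with 2% B27, 20 ng/mL EGF, 10 ng/mL bFGF, 5 μg/mL insulin and 5% BSA; 0.1% DMSO final. Viable cells read by CellTiter-Glo luminescence; Sphere IC50 (μmol/L) for 50% proliferation inhibition.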

[5] = system: HT-29 cells; experiment: Inhibition test for sphere-forming ability of cancer cells in the presence of BSA (Test Example 2), HT-29; conditions: in the presence of 5% BSA, cultured 4 days
Method: (§2) Human colorectal cancer-derived HCT-116 cells, human colon-adenocarcinoma-derived HT-29 cells, and human pharyngeal cancer-derived FaDu cells were available from American Type Culture Collection (ATCC). HCT-116 cells and HT-29 cells were cultured at 37° C. under 5% CO2 using the McCoy's 5a medium containing 10% fetal bovine serum (FBS) and 1% penicillin/streptomycin, and FaDu cells were cultured at 37° C. under 5% CO2 using the MEM medium containing 10% FBS, 1% non-essential amino acid, 1% sodium pyruvate, 5% bovine serum albumin (BSA), and 1% penicillin/streptomycin. HCT-116 cells, HT-29 cells, and FaDu cells were seeded in a 384 Well Black Clear Bottom Ultra-Low Attachment Microplate (Corning Cat. No. 3827) in an amount of 350-800 cells/well using the DMEM/F12 medium containing 2% B27 supplement (GIBCO), 20 ng/mL epidermal growth factor (EGF) (peprotech), 10 ng/mL basic fibroblast growth factor (bFGF) (peprotech), 5 μg/mL insulin (Sigma), 5% bovine serum albumin (BSA), and 1% penicillin/streptomycin. Each test compound was added into each well to adjust the final concentration of DMSO to 0.1%, and the cells were cultured for 4 days. The number of viable cells in each well was then measured with CellTiter-Glo® Luminescent Cell Viability Assay (Promega) to calculate the concentration of each test compound for 50% inhibition of cell proliferation (Sphere IC50 value; μmol/L).
(§3) The experiment of Test Example 2 was performed for each compound of each Example.
(§4) The concentration of each test compound for 50% inhibition of cell proliferation (Sphere IC50 value; μmol/L) is shown in the following Table.

[6] = system: FaDu cells; experiment: Inhibition test for sphere-forming ability of cancer cells in the presence of BSA (Test Example 2), FaDu; conditions: in the presence of 5% BSA, cultured 4 days
Method: as §2, §3, §4

| IC50 ([1]; Homo sapiens) [µmol/L] | IC50 ([2]; Homo sapiens) [µmol/L] | IC50 ([3]; Homo sapiens) [µmol/L] | IC50 ([4]; Homo sapiens, HCT-116, 96 h) [nM] | IC50 ([5]; Homo sapiens, 96 h) [nM] | IC50 ([6]; Homo sapiens, 96 h) [nM] | IC50 [1] [µmol/L] | IC50 [2] [µmol/L] | IC50 [3] [µmol/L] | IC50 [4] [nM] | IC50 [5] [nM] | IC50 [6] [nM] | SMILES | inhibitory effect on the sphere-forming ability of cancer cells [1] |
| --- | --- | --- | --- | --- | --- | --- | --- | --- | --- | --- | --- | --- | --- |
| 0.89 | 0.54 | 0.73 | 5790 | 4290 | 590 | – | – | – | – | – | – | O=C(/C=C/c1cccnc1)Nc1cn(Cc2cccc(Cl)c2)cn1 [Example 41, (2E)-N-[1-(3-chlorobenzyl)-1H-imidazol-4-yl]-3-(pyridin-3-yl)prop-2-enamide] | – |
| 2.62 | 0.62 | 0.79 | > 10000 | 7600 | 4670 | – | – | – | – | – | – | O=C(/C=C/C=C/c1ccccc1)Nc1cn(Cc2cccc(Cl)c2)cn1 [Example 46, (2E,4E)-N-(1-(3-Chlorobenzyl)-1H-imidazol-4-yl)-5-phenylpenta-2,4-dienamide] | – |
| 0.63 | 0.52 | 0.85 | 4930 | 650 | 550 | – | – | – | – | – | – | COc1ccc(C(=O)Nc2cn(Cc3cccc(Cl)c3)cn2)cc1OC [Example 141, N-[1-(3-chlorobenzyl)-1H-imidazol-4-yl]-3,4-dimethoxybenzamide] | – |
| 0.95 | 0.84 | 0.93 | 6350 | 5210 | 960 | – | – | – | – | – | – | COc1ccc(C(=O)Nc2cn(Cc3cc(F)c(F)cc3F)cn2)cc1OC [Example 143, 3,4-Dimethoxy-N-[1-(2,4,5-trifluorobenzyl)-1H-imidazol-4-yl]benzamide] | – |
| – | – | – | – | – | – | 5.72 | 4.71 | 5.81 | > 10000 | 5600 | 4320 | COc1ccc(C(=O)Nc2cn(Cc3ccccc3F)cn2)cc1OC [Example 144] | – |
| – | – | – | – | – | – | 0.62 | 0.62 | 0.7 | 1620 | 630 | 340 | COc1ccc(C(=O)Nc2cn(Cc3cccc(F)c3)cn2)cc1OC [Example 145] | – |
| – | – | – | – | – | – | 0.64 | 0.74 | 0.8 | 6020 | 810 | 550 | COc1ccc(C(=O)Nc2cn(Cc3ccc(F)cc3)cn2)cc1OC [Example 146] | – |
| – | – | – | – | – | – | 0.78 | 0.83 | 3.12 | 6830 | 5970 | 910 | COc1ccc(C(=O)Nc2cn(Cc3cccc(F)c3F)cn2)cc1OC [Example 147] | – |
| – | – | – | – | – | – | 5.2 | 4.74 | 8 | > 10000 | 6780 | 5060 | COc1ccc(C(=O)Nc2cn(Cc3ccc(F)cc3F)cn2)cc1OC [Example 148] | – |
| – | – | – | – | – | – | 4.77 | 0.75 | 0.89 | 7750 | 6180 | 2420 | COc1ccc(C(=O)Nc2cn(Cc3cc(F)ccc3F)cn2)cc1OC [Example 149] | – |
| – | – | – | – | – | – | 0.69 | 3.56 | 6.21 | > 10000 | > 10000 | 7810 | COc1ccc(C(=O)Nc2cn(Cc3c(F)cccc3F)cn2)cc1OC [Example 150] | – |
| 0.35 | 0.09 | 0.31 | 650 | 550 | 330 | – | – | – | – | – | – | COc1ccc(C(=O)Nc2cn(Cc3ccc(F)c(F)c3)cn2)cc1OC [Example 151, 3,4-dimethoxy-N-[1-(3,4-difluorobenzyl)-1H-imidazol-4-yl]benzamide] | particularly potent inhibitory effect |
| 0.09 | 0.09 | 0.42 | 570 | 630 | 150 | – | – | – | – | – | – | COc1ccc(C(=O)Nc2cn(Cc3cc(F)cc(F)c3)cn2)cc1OC [Example 152, 3,4-dimethoxy-N-[1-(3,5-difluorobenzyl)-1H-imidazol-4-yl]benzamide] | particularly potent inhibitory effect |

Reference: patent US10898469B2, “Imidazolylamide derivative” (Sumitomo Dainippon Pharma Co., Ltd., priority 2016, dated 2021)
